How the values were obtained:
[1] = biological target: Muscarinic acetylcholine receptor M2 (Homo sapiens) (UniProt P08172); details: Compound concentration 10.0 uM
[2] = biological target: Tyrosine-protein kinase BTK (Homo sapiens) (UniProt Q06187); test: BTK Kinase screen; details: Compound concentration 1.0 uM
[3] = biological target: Dual specificity tyrosine-phosphorylation-regulated kinase 1B (Homo sapiens) (UniProt Q9Y463); test: DYRK1B Kinase screen; details: Compound concentration 1.0 uM
[4] = biological target: Dual specificity protein kinase CLK2 (Homo sapiens) (UniProt P49760); test: CLK2 Kinase screen; details: Compound concentration 1.0 uM
[5] = biological target: T1, Homeodomain-interacting protein kinase 4 (Homo sapiens) (UniProt Q8NE63); test: HIPK4 Kinase screen; details: Compound concentration 1.0 uM
T1 sequence (whole entry): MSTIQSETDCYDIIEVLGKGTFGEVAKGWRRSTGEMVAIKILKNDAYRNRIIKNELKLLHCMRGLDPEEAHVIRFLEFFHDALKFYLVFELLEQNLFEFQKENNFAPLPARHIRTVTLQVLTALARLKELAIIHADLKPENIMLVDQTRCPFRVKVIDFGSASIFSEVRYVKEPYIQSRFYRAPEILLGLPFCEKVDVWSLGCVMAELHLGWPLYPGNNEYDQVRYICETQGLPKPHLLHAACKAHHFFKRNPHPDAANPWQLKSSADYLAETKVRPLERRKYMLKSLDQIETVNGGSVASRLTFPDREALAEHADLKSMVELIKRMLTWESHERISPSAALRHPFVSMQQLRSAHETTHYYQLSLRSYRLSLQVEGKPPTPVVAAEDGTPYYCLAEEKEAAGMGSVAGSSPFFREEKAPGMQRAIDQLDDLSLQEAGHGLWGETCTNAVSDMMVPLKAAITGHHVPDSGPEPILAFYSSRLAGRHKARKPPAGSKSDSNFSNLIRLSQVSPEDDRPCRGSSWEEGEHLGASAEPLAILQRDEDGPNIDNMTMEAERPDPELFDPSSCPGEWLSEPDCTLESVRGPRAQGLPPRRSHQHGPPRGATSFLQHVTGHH

[6] = biological target: Vasoactive intestinal polypeptide receptor 1 (Homo sapiens) (UniProt P32241); test: Inhibition of Vasoactive Intestinal Peptide VIP1 at 10 µM in the Eurofins-Panlabs radioligand binding assay (Eurofins_assay_287010); details: Compound concentration 10.0 uM
[7] = biological target: Casein kinase I isoform delta (Homo sapiens) (UniProt P48730); test: CSNK1D (CK1 delta) Kinase screen; details: Compound concentration 1.0 uM
[8] = biological target: T2, NUAK family SNF1-like kinase 1 (Homo sapiens) (UniProt O60285); test: NUAK1 (ARK5) Kinase screen; details: Compound concentration 1.0 uM
T2 sequence (whole entry): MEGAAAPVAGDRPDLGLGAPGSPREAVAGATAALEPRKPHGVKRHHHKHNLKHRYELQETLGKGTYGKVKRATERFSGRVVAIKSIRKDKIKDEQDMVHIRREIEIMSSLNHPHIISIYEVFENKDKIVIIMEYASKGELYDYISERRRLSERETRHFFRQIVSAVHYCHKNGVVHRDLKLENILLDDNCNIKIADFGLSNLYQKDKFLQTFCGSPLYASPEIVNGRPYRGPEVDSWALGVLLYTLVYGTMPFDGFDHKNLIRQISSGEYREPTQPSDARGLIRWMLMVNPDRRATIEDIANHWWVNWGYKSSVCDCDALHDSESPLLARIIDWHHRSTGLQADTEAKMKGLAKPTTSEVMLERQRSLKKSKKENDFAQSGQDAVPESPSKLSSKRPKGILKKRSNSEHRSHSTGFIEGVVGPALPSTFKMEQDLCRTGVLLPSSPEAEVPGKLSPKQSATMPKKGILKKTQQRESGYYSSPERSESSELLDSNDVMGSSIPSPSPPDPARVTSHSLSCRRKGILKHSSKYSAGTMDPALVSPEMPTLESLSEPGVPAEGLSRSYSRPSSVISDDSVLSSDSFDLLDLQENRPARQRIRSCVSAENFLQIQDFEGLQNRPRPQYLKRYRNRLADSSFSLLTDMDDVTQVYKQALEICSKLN

[9] = biological target: Glutamate receptor 2 (Homo sapiens) (UniProt P42262); details: Rattus norvegicus; Compound concentration 10.0 uM
[10] = biological target: RAC-alpha serine/threonine-protein kinase (Homo sapiens) (UniProt P31749); test: AKT1 (PKB alpha) Kinase screen; details: Compound concentration 1.0 uM
[11] = biological target: T3, Dual specificity mitogen-activated protein kinase kinase 3 (Homo sapiens) (UniProt P46734); test: MAP2K3 (MEK3) Kinase screen; details: Compound concentration 1.0 uM
T3 sequence (whole entry): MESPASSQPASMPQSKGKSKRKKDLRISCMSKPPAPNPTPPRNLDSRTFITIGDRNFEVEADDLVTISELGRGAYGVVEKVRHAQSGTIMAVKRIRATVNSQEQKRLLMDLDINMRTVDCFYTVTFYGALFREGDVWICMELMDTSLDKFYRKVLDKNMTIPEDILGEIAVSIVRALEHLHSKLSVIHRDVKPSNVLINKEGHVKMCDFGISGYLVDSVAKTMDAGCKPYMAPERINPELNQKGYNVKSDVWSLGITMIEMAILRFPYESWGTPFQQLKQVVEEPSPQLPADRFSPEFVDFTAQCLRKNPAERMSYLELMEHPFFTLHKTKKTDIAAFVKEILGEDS

[12] = biological target: MAO-A (amine oxidase [flavin-containing] A) (Homo sapiens, UniProt P21397); test: Inhibition of Monoamine Oxidase MAO-A at compound concentration of 10.0 uM in the Eurofins-Panlabs enzyme assay (Eurofins_assay_140010); design: substrate with concentration 50 uM Kynuramine, incubation time 60 min, incubation temperature 37 C; details: recombinant human MAO-A expressed in insect Hi5 cells, probe kynuramine (50 uM), compound concentration 10 uM
[13] = biological target: Cyclin-dependent kinase 2/cyclin A (Homo sapiens) (UniProt P24941+P20248+P78396); test: CDK2/cyclin A Kinase screen; type: protein-complex assay; details: Compound concentration 1.0 uM
[14] = biological target: Death-associated protein kinase 3 (Homo sapiens) (UniProt O43293); test: DAPK3 (ZIPK) Kinase screen; details: Compound concentration 1.0 uM
[15] = biological target: Peroxisome proliferator-activated receptor alpha (Homo sapiens) (UniProt Q07869); test: PPARalpha Eurofins-Panlabs radioligand binding assay; details: Compound concentration 10.0 uM
[16] = biological target: Receptor-type tyrosine-protein kinase FLT3 (Homo sapiens) (UniProt P36888); test: FLT3 Kinase screen; details: Compound concentration 1.0 uM
[17] = biological target: LIM domain kinase 2 (Homo sapiens) (UniProt P53671); test: LIMK2 Kinase screen; details: Compound concentration 1.0 uM
[18] = biological target: Mitogen-activated protein kinase 11 (Homo sapiens) (UniProt Q15759); test: MAPK11 (p38 beta) Kinase screen; details: Compound concentration 1.0 uM

Sequence of MAO-A (amine oxidase [flavin-containing] A) (P21397 whole entry): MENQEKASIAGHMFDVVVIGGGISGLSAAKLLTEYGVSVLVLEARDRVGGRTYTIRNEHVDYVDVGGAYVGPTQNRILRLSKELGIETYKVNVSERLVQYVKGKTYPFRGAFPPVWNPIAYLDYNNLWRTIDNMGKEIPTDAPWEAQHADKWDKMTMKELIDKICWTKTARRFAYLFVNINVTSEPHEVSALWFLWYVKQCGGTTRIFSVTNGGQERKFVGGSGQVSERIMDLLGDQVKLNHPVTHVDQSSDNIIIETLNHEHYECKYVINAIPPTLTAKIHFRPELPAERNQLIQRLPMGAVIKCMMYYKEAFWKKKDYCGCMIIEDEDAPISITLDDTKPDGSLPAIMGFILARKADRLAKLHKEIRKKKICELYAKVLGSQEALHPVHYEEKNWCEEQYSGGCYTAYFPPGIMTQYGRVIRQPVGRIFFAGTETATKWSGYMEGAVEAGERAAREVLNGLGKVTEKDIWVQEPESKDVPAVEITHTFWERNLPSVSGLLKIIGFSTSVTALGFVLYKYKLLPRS
Sequence of Dual specificity protein kinase CLK2 (Homo sapiens) (P49760 whole entry, looked up): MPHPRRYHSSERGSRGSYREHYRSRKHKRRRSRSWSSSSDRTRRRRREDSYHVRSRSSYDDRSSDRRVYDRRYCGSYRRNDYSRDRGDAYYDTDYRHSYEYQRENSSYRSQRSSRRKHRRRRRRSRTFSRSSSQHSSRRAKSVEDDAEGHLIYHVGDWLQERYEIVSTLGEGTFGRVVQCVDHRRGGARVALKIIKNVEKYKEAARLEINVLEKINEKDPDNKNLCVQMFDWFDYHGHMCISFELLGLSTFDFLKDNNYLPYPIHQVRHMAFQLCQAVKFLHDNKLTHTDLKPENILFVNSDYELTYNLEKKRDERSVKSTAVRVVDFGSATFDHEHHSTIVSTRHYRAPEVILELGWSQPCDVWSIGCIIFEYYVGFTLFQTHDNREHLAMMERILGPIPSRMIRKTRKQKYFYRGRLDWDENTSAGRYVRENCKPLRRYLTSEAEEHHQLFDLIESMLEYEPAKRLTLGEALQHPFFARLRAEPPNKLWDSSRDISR
Sequence of Muscarinic acetylcholine receptor M2 (Homo sapiens) (P08172 whole entry): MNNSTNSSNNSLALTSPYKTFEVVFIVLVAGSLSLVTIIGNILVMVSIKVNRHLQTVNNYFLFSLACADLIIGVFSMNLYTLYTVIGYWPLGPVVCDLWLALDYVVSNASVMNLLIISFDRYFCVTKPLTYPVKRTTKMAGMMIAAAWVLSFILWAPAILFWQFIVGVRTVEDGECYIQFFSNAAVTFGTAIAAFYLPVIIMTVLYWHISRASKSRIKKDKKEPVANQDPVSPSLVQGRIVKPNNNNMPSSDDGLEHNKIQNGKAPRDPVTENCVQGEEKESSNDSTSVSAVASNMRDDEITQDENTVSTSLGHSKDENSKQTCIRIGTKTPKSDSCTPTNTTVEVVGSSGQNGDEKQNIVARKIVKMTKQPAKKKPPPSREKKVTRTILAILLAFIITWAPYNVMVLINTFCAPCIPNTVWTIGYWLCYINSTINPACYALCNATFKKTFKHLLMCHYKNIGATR
Sequence of RAC-alpha serine/threonine-protein kinase (Homo sapiens) (P31749 whole entry): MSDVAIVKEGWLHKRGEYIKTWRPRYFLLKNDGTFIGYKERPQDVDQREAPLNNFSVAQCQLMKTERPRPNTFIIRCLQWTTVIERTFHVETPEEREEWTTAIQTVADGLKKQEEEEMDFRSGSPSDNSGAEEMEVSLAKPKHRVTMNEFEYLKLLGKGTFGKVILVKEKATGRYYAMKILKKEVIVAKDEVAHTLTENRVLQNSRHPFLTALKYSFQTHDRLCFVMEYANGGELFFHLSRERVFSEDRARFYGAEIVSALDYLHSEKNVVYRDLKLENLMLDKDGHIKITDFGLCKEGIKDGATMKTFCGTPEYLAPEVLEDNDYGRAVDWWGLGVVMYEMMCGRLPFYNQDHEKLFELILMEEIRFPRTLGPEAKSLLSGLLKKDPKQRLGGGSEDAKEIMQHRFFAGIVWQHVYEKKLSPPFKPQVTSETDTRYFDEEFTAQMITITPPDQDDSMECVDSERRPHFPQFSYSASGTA
Sequence of LIM domain kinase 2 (Homo sapiens) (P53671 whole entry, looked up, the tested form may be a part): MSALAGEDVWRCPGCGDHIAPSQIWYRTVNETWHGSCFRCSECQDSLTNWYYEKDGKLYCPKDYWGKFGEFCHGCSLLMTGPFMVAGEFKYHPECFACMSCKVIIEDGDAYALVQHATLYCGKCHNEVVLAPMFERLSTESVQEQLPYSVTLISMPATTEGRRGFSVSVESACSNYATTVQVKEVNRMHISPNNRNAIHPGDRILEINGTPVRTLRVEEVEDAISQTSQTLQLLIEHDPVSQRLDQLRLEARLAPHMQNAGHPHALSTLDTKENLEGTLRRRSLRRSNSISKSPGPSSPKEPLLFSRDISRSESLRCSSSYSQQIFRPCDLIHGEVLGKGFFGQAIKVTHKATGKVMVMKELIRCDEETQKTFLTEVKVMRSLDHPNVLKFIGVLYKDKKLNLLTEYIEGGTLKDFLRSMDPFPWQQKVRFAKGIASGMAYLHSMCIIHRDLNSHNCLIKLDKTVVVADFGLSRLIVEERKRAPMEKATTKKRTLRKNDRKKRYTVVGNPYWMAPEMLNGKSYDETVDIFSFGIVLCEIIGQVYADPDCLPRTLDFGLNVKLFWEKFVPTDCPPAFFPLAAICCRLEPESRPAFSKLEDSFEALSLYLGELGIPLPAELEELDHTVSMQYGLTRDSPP
Sequence of Dual specificity tyrosine-phosphorylation-regulated kinase 1B (Homo sapiens) (Q9Y463 whole entry, looked up): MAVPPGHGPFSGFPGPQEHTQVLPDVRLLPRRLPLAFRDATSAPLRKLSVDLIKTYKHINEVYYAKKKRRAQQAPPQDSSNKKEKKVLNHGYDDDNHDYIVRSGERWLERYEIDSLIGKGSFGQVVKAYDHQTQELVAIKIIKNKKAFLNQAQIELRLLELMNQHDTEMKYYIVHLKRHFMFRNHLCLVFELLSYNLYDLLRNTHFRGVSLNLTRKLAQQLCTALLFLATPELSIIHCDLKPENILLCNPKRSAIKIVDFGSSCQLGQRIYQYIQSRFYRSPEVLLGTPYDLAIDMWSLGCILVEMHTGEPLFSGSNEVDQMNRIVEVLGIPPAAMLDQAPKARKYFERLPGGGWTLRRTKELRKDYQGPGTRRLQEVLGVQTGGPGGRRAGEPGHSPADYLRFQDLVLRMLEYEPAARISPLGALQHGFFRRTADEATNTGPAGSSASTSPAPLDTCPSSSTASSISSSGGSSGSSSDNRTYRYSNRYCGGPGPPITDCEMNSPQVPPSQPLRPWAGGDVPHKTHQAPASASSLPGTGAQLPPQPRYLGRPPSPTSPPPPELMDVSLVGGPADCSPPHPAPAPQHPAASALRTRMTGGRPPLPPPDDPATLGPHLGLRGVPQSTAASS
Sequence of Peroxisome proliferator-activated receptor alpha (Homo sapiens) (Q07869 whole entry): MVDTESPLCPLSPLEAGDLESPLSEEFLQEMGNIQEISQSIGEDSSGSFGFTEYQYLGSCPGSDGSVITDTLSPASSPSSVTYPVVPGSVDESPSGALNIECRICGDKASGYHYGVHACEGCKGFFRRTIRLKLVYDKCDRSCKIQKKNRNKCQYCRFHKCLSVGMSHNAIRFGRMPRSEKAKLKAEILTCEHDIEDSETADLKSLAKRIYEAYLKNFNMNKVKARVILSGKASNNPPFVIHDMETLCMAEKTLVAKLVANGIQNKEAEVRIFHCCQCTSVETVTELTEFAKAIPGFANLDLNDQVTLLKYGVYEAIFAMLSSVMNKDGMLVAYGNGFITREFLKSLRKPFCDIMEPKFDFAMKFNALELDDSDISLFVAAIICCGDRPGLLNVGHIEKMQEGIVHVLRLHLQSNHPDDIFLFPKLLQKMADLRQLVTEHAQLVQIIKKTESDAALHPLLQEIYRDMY
Sequence of Receptor-type tyrosine-protein kinase FLT3 (Homo sapiens) (P36888 whole entry, the tested form may be a part): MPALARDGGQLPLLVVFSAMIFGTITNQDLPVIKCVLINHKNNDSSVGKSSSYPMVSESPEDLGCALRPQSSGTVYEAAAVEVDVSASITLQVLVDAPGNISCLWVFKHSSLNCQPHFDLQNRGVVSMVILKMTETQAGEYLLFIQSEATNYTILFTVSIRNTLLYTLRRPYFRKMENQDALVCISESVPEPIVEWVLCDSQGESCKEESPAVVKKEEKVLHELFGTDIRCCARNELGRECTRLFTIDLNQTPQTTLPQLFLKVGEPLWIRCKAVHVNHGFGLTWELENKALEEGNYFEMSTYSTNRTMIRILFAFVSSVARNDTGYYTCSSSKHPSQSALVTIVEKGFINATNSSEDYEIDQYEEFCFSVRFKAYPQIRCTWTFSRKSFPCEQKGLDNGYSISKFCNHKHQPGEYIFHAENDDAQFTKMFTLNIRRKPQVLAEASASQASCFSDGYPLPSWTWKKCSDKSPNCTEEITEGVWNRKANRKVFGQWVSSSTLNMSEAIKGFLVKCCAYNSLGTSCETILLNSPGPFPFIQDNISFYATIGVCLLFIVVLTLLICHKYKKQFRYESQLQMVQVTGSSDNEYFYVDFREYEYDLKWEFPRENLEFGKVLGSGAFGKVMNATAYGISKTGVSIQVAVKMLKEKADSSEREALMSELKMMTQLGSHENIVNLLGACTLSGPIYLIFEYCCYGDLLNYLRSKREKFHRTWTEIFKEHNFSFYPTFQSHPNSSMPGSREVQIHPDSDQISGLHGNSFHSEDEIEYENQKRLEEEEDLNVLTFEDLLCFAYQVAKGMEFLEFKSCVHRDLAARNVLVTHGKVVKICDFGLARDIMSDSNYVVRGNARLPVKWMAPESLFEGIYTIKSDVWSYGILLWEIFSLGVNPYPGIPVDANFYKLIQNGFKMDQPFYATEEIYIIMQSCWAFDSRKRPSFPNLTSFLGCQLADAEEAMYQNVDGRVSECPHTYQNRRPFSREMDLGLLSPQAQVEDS

Row | SMILES | inhibition [1] [%] | inhibition [2] [%] | inhibition [3] [%] | inhibition [4] [%] | inhibition [5] [%] | inhibition [6] [%] | inhibition [7] [%] | inhibition [8] [%] | inhibition [9] [%] | inhibition [10] [%] | inhibition [11] [%] | inhibition at 60 min, 10 µM [12] | inhibition [13] [%] | inhibition [14] [%] | inhibition [15] [%] | inhibition [16] [%] | inhibition [17] [%] | inhibition [18] [%]
1 | C[C@@H]1CN(c2cc(-c3nn(C)c4ccc(OC5(C)CC5)cc34)ncn2)C[C@H](C)O1 [MLi-2-NC] | 21 |  |  |  |  |  |  |  |  |  |  |  |  |  |  |  |  | 
2 | C[C@@H]1CN(c2cc(-c3n[nH]c4ccc(OC5(C)CC5)cc34)ncn2)C[C@H](C)O1 [MLi-2] |  | 4.5 | 1.77 | 55 | 6.2 | 3 | 0.974 | 14.5 | -2 | 6.75 | -2.3 | 2% (not active) | 1.13 | 5.27 | 10 | 2.53 | 0.642 | 13

— ChEMBL document CHEMBL4507291 (2021)
